Assay results from PubChem BioAssay (NCI).
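Compound exposure: 48 hours, 5 concentrations, 96-well plates. GI50 is the concentration that inhibits growth by half. TGI is the concentration that stops growth completely.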

Assays:
Test in all cases: inhibition of tumour cell growth, NCI panel, 48 h
786-0 renal = tested on: 786-0 renal
A498 renal = tested on: A498 renal
A549 NSCLC = tested on: A549 NSCLC
ACHN renal = tested on: ACHN renal
BT-549 breast = tested on: BT-549 breast
CAKI-1 renal = tested on: CAKI-1 renal
CCRF-CEM leukemia = tested on: CCRF-CEM leukemia
COLO 205 colon = tested on: COLO 205 colon
DU-145 prostate = tested on: DU-145 prostate
EKVX NSCLC = tested on: EKVX NSCLC
HCC-2998 colon = tested on: HCC-2998 colon
HCT-116 colon = tested on: HCT-116 colon
HCT-15 colon = tested on: HCT-15 colon
HL-60(TB) leukemia = tested on: HL-60(TB) leukemia
HOP-62 NSCLC = tested on: HOP-62 NSCLC
HS 578T breast = tested on: HS 578T breast
HT29 colon = tested on: HT29 colon
IGROV1 ovarian = tested on: IGROV1 ovarian
K-562 leukemia = tested on: K-562 leukemia
KM12 colon = tested on: KM12 colon
LOX IMVI melanoma = tested on: LOX IMVI melanoma
M14 melanoma = tested on: M14 melanoma
MALME-3M melanoma = tested on: MALME-3M melanoma
MCF7 breast = tested on: MCF7 breast
MDA-MB-231 breast = tested on: MDA-MB-231 breast
MDA-MB-435 = tested on: MDA-MB-435
MOLT-4 leukemia = tested on: MOLT-4 leukemia
NCI-H226 lung = tested on: NCI-H226 lung
NCI-H23 lung = tested on: NCI-H23 lung
NCI-H460 lung = tested on: NCI-H460 lung
NCI-H522 lung = tested on: NCI-H522 lung
NCI/ADR-RES ovarian = tested on: NCI/ADR-RES ovarian
OVCAR-3 ovarian = tested on: OVCAR-3 ovarian
OVCAR-4 ovarian = tested on: OVCAR-4 ovarian
OVCAR-5 ovarian = tested on: OVCAR-5 ovarian
OVCAR-8 ovarian = tested on: OVCAR-8 ovarian
PC-3 prostate = tested on: PC-3 prostate
RPMI-8226 leukemia = tested on: RPMI-8226 leukemia
RXF 393 renal = tested on: RXF 393 renal
SF-268 CNS = tested on: SF-268 CNS
SF-295 CNS = tested on: SF-295 CNS
SF-539 CNS = tested on: SF-539 CNS
SK-MEL-2 melanoma = tested on: SK-MEL-2 melanoma
SK-MEL-28 melanoma = tested on: SK-MEL-28 melanoma
SK-MEL-5 melanoma = tested on: SK-MEL-5 melanoma
SK-OV-3 ovarian = tested on: SK-OV-3 ovarian
SN12C renal = tested on: SN12C renal
SNB-19 CNS = tested on: SNB-19 CNS
SNB-75 CNS = tested on: SNB-75 CNS
SR leukemia = tested on: SR leukemia
SW-620 colon = tested on: SW-620 colon
T-47D breast = tested on: T-47D breast
TK-10 renal = tested on: TK-10 renal
U251 CNS = tested on: U251 CNS
UACC-257 melanoma = tested on: UACC-257 melanoma
UACC-62 melanoma = tested on: UACC-62 melanoma
UO-31 renal = tested on: UO-31 renal

CN1CCN(Cc2ccc(NC(=O)c3cncc(C#Cc4cnc5ccc(N6CCOCC6)nn45)c3)cc2C(F)(F)F)CC1
GI50 (786-0 renal): 144 nM
TGI (786-0 renal): 433 nM
GI50 (A498 renal): 97.5 nM
TGI (A498 renal): 189 nM
GI50 (A549 NSCLC): 121 nM
TGI (A549 NSCLC): 555 nM
GI50 (ACHN renal): 131 nM
TGI (ACHN renal): 510 nM
GI50 (BT-549 breast): 259 nM
TGI (BT-549 breast): 763 nM
GI50 (CAKI-1 renal): 51.9 nM
TGI (CAKI-1 renal): 174 nM
GI50 (CCRF-CEM leukemia): 125 nM
TGI (CCRF-CEM leukemia): 5980 nM
GI50 (COLO 205 colon): 53.6 nM
TGI (COLO 205 colon): 129 nM
GI50 (DU-145 prostate): 93.6 nM
TGI (DU-145 prostate): 398 nM
GI50 (EKVX NSCLC): 101 nM
TGI (EKVX NSCLC): 564 nM
GI50 (HCC-2998 colon): 130 nM
TGI (HCC-2998 colon): 474 nM
GI50 (HCT-116 colon): 26.3 nM
TGI (HCT-116 colon): 342 nM
GI50 (HCT-15 colon): 112 nM
TGI (HCT-15 colon): 375 nM
GI50 (HL-60(TB) leukemia): 23.9 nM
TGI (HL-60(TB) leukemia): 224 nM
GI50 (HOP-62 NSCLC): 100 nM
TGI (HOP-62 NSCLC): 328 nM
GI50 (HS 578T breast): 85.3 nM
TGI (HS 578T breast): 353 nM
GI50 (HT29 colon): 31.3 nM
TGI (HT29 colon): 392 nM
GI50 (IGROV1 ovarian): 46.8 nM
TGI (IGROV1 ovarian): 430 nM
GI50 (K-562 leukemia): 5 nM
TGI (K-562 leukemia): 1900 nM
GI50 (KM12 colon): 5 nM
TGI (KM12 colon): 243 nM
GI50 (LOX IMVI melanoma): 59.3 nM
TGI (LOX IMVI melanoma): 142 nM
GI50 (M14 melanoma): 50.6 nM
TGI (M14 melanoma): 122 nM
GI50 (MALME-3M melanoma): 37.2 nM
TGI (MALME-3M melanoma): 153 nM
GI50 (MCF7 breast): 26.9 nM
TGI (MCF7 breast): 442 nM
GI50 (MDA-MB-231 breast): 33 nM
TGI (MDA-MB-231 breast): 204 nM
GI50 (MDA-MB-435): 53.3 nM
TGI (MDA-MB-435): 231 nM
GI50 (MOLT-4 leukemia): 95.8 nM
TGI (MOLT-4 leukemia): 1460 nM
GI50 (NCI-H226 lung): 23.9 nM
TGI (NCI-H226 lung): 320 nM
GI50 (NCI-H23 lung): 79.6 nM
TGI (NCI-H23 lung): 325 nM
GI50 (NCI-H460 lung): 84.5 nM
TGI (NCI-H460 lung): 254 nM
GI50 (NCI-H522 lung): 68 nM
TGI (NCI-H522 lung): 161 nM
GI50 (NCI/ADR-RES ovarian): 814 nM
TGI (NCI/ADR-RES ovarian): 3750 nM
GI50 (OVCAR-3 ovarian): 99.4 nM
TGI (OVCAR-3 ovarian): 407 nM
GI50 (OVCAR-4 ovarian): 99.1 nM
TGI (OVCAR-4 ovarian): 543 nM
GI50 (OVCAR-5 ovarian): 85.8 nM
TGI (OVCAR-5 ovarian): 548 nM
GI50 (OVCAR-8 ovarian): 134 nM
TGI (OVCAR-8 ovarian): 541 nM
GI50 (PC-3 prostate): 145 nM
TGI (PC-3 prostate): 1040 nM
GI50 (RPMI-8226 leukemia): 153 nM
TGI (RPMI-8226 leukemia): 553 nM
GI50 (RXF 393 renal): 78.6 nM
TGI (RXF 393 renal): 175 nM
GI50 (SF-268 CNS): 82.3 nM
TGI (SF-268 CNS): 218 nM
GI50 (SF-295 CNS): 140 nM
TGI (SF-295 CNS): 686 nM
GI50 (SF-539 CNS): 60 nM
TGI (SF-539 CNS): 205 nM
GI50 (SK-MEL-2 melanoma): 68 nM
TGI (SK-MEL-2 melanoma): 144 nM
GI50 (SK-MEL-28 melanoma): 122 nM
TGI (SK-MEL-28 melanoma): 433 nM
GI50 (SK-MEL-5 melanoma): 225 nM
TGI (SK-MEL-5 melanoma): 814 nM
GI50 (SK-OV-3 ovarian): 144 nM
TGI (SK-OV-3 ovarian): 405 nM
GI50 (SN12C renal): 49.5 nM
TGI (SN12C renal): 300 nM
GI50 (SNB-19 CNS): 163 nM
TGI (SNB-19 CNS): 686 nM
GI50 (SNB-75 CNS): 47.7 nM
TGI (SNB-75 CNS): 155 nM
GI50 (SR leukemia): 97.2 nM
TGI (SR leukemia): 367 nM
GI50 (SW-620 colon): 49.7 nM
TGI (SW-620 colon): 378 nM
GI50 (T-47D breast): 199 nM
TGI (T-47D breast): 2620 nM
GI50 (TK-10 renal): 79.9 nM
TGI (TK-10 renal): 229 nM
GI50 (U251 CNS): 141 nM
TGI (U251 CNS): 558 nM
GI50 (UACC-257 melanoma): 160 nM
TGI (UACC-257 melanoma): 936 nM
GI50 (UACC-62 melanoma): 86.3 nM
TGI (UACC-62 melanoma): 419 nM
GI50 (UO-31 renal): 135 nM
TGI (UO-31 renal): 359 nM
